According to patent US11213030B2, “4-(3,4-dihydronaphth-1-yl or 2H-chromen-4-yl)-5-hydroxy-2H-pyradizin-3-ones as herbicides” (FMC Corporation, priority 2017, dated 2022):

Columns and labels:
Format in all cases: in vivo
[1] = system: barnyardgrass (Echinochloa crus-galli); experiment: Test A preemergence, barnyardgrass; conditions: 0 to 100 scale
Description: (§1) Seeds of plant species selected from barnyardgrass (Echinochloa crus-galli), kochia (Kochia scoparia), ragweed (common ragweed, Ambrosia elatior), ryegrass, It. (Italian ryegrass, Lolium multiflorum), foxtail, green (green foxtail, Setaria viridis), and pigweed (Amaranthus retroflexus) were planted into a blend of loam soil and sand and treated preemergence with a directed soil spray using test chemicals formulated in a non-phytotoxic solvent mixture which included a surfactant. At the same time, plants selected from these weed species and also wheat (Triticum aestivum), corn (Zea mays), blackgrass (Alopecurus myosuroides), and galium (catchweed bedstraw, Galium aparine) were planted in pots containing the same blend of loam soil and sand and treated with postemergence applications of test chemicals formulated in the same manner. Plants ranged in height from 2 to 10 cm and were in the one- to two-leaf stage for the postemergence treatment. Treated plants and untreated controls were maintained in a greenhouse for approximately 10 d, after which time all treated plants were compared to untreated controls and visually evaluated for injury. Plant response ratings, summarized in Table A, are based on a 0 to 100 scale where 0 is no effect and 100 is complete control. A dash (-) response means no test result.

kochia (Kochia scoparia) [2] = experiment: Test A preemergence, kochia; conditions: 125 g ai/ha, 0 to 100 scale
Description: as §1

[3] = system: ragweed (common ragweed, Ambrosia elatior); experiment: Test A preemergence, ragweed; conditions: 0 to 100 scale
Description: as §1

[4] = system: ryegrass, It. (Italian ryegrass, Lolium multiflorum); experiment: Test A preemergence, Italian ryegrass; conditions: 0 to 100 scale
Description: as §1

[5] = system: foxtail, green (green foxtail, Setaria viridis); experiment: Test A preemergence, green foxtail; conditions: 31 g ai/ha, 0 to 100 scale
Description: as §1

[6] = system: pigweed (Amaranthus retroflexus); experiment: Test A preemergence, pigweed; conditions: 0 to 100 scale
Description: as §1

[7] = system: barnyardgrass (Echinochloa crus-galli); experiment: Test A postemergence, barnyardgrass; conditions: 0 to 100 scale
Description: as §1

kochia (Kochia scoparia) [8] = experiment: Test A postemergence, kochia; conditions: 0 to 100 scale
Description: as §1

[9] = system: ragweed (common ragweed, Ambrosia elatior); experiment: Test A postemergence, ragweed; conditions: 0 to 100 scale
Description: as §1

[10] = system: ryegrass, It. (Italian ryegrass, Lolium multiflorum); experiment: Test A postemergence, Italian ryegrass; conditions: 0 to 100 scale
Description: as §1

[11] = system: pigweed (Amaranthus retroflexus); experiment: Test A postemergence, pigweed; conditions: 0 to 100 scale
Description: as §1

[12] = system: wheat (Triticum aestivum); experiment: Test A postemergence, wheat; conditions: 0 to 100 scale
Description: as §1

corn (Zea mays) = experiment: Test A postemergence, corn; conditions: 0 to 100 scale
Description: as §1

[13] = system: blackgrass (Alopecurus myosuroides); experiment: Test A postemergence, blackgrass; conditions: 0 to 100 scale
Description: as §1

[14] = system: galium (catchweed bedstraw, Galium aparine); experiment: Test A postemergence, galium; conditions: 0 to 100 scale
Description: as §1

[15] = system: barnyardgrass (Echinochloa crus-galli); experiment: Test B flooded paddy test, barnyardgrass; conditions: Flood, 250 g ai/ha applied to paddy water, 2-leaf stage, 13 to 15 d; scale of 0 to 100 where 0 is no effect and 100 is complete control
Description: (§2) Plant species in the flooded paddy test selected from rice (Oryza sativa), sedge, umbrella (small-flower umbrella sedge, Cyperus difformis), ducksalad (Heteranthera limosa), and barnyardgrass (Echinochloa crus-galli) were grown to the 2-leaf stage for testing. At the time of treatment, test pots were flooded to 3 cm above the soil surface, treated by application of test compounds directly to the paddy water, and then maintained at that water depth for the duration of the test. Treated plants and controls were maintained in a greenhouse for 13 to 15 d, after which time all species were compared to controls and visually evaluated. Plant response ratings, summarized in Table B, are based on a scale of 0 to 100 where 0 is no effect and 100 is complete control. A dash (-) response means no test result.

[16] = system: ducksalad (Heteranthera limosa); experiment: Test B flooded paddy test, ducksalad; conditions: Flood, 250 g ai/ha applied to paddy water, 2-leaf stage, 13 to 15 d; scale of 0 to 100 where 0 is no effect and 100 is complete control
Description: as §2

rice (Oryza sativa) = experiment: Test B flooded paddy test, rice; conditions: Flood, 250 g ai/ha applied to paddy water, 2-leaf stage, 13 to 15 d; scale of 0 to 100 where 0 is no effect and 100 is complete control
Description: as §2

[17] = system: sedge, umbrella (small-flower umbrella sedge, Cyperus difformis); experiment: Test B flooded paddy test, umbrella sedge; conditions: Flood, 250 g ai/ha applied to paddy water, 2-leaf stage, 13 to 15 d; scale of 0 to 100 where 0 is no effect and 100 is complete control
Description: as §2

Foxtail, Giant [18] = experiment: Test A postemergence, giant foxtail; conditions: 0 to 100 scale
Foxtail, Giant [19] = experiment: Test A preemergence, giant foxtail; conditions: 125 g ai/ha, 0 to 100 scale

## CC1=C(c2c(O)c(Cl)nn(C)c2=O)c2cc(C)ccc2CC1 [Compound 8]
[1]; 31 g ai/ha
  Plant response rating, Barnyardgrass: 0
[1]; 125 g ai/ha
  Plant response rating, Barnyardgrass: 60
Kochia (Kochia scoparia) [2]
  Plant response rating, Kochia: 10
[3]; 31 g ai/ha
  Plant response rating, Ragweed: 0
[3]; 125 g ai/ha
  Plant response rating, Ragweed: 30
[4]; 31 g ai/ha
  Plant response rating, Ryegrass, It.: 0
[4]; 125 g ai/ha
  Plant response rating, Ryegrass, It.: 10
[5]
  Plant response rating, Foxtail, Green: 0
[6]; 31 g ai/ha
  Plant response rating, Pigweed: 10
[6]; 125 g ai/ha
  Plant response rating, Pigweed: 100
[7]; 31 g ai/ha
  Plant response rating, Barnyardgrass: 50
[7]; 125 g ai/ha
  Plant response rating, Barnyardgrass: 80
Kochia (Kochia scoparia) [8]; 31 g ai/ha
  Plant response rating, Kochia: 40
Kochia (Kochia scoparia) [8]; 125 g ai/ha
  Plant response rating, Kochia: 50
[9]; 31 g ai/ha
  Plant response rating, Ragweed: 80
[9]; 125 g ai/ha
  Plant response rating, Ragweed: 100
[10]; 31 g ai/ha
  Plant response rating, Ryegrass, It.: 40
[10]; 125 g ai/ha
  Plant response rating, Ryegrass, It.: 80
[11]; 31 g ai/ha
  Plant response rating, Pigweed: 90
[11]; 125 g ai/ha
  Plant response rating, Pigweed: 100
[12]; 31 g ai/ha
  Plant response rating, Wheat: 0
[12]; 125 g ai/ha
  Plant response rating, Wheat: 0
Corn (Zea mays); 31 g ai/ha
  Plant response rating, Corn: 0
Corn (Zea mays); 125 g ai/ha
  Plant response rating, Corn: 20
[13]; 31 g ai/ha
  Plant response rating, Blackgrass: 20
[13]; 125 g ai/ha
  Plant response rating, Blackgrass: 30
[14]; 31 g ai/ha
  Plant response rating, Galium: 90
[14]; 125 g ai/ha
  Plant response rating, Galium: 90
[15]
  Plant response rating, Barnyardgrass: 60
[16]
  Plant response rating, Ducksalad: 90
Rice (Oryza sativa)
  Plant response rating, Rice: 0
[17]
  Plant response rating, Sedge, Umbrella: 95
Foxtail, Giant [18]; 31 g ai/ha
  Plant response rating, Foxtail, Giant: 60
Foxtail, Giant [18]; 125 g ai/ha
  Plant response rating, Foxtail, Giant: 80
Foxtail, Giant [19]
  Plant response rating, Foxtail, Giant: 70
